Laboratory results as given in paper PMC6262012, “IMB-T130 targets 3-dehydroquinate synthase and inhibits Mycobacterium tuberculosis” (Scientific Reports, 2018).
≈ marks a conversion by molar mass, not a printed value. Like-named read-outs stand apart in the source and are kept apart here.

How the values were obtained:
[1] = biological target: Mycobacterium tuberculosis 3-dehydroquinate synthase (MtDHQS) (Mycobacterium tuberculosis, UniProt P9WPX9); experiment: DHQS enzyme assay (malachite green, free phosphoric acid); format: biochemical
Sequence of Mycobacterium tuberculosis 3-dehydroquinate synthase (MtDHQS) (P9WPX9 whole entry): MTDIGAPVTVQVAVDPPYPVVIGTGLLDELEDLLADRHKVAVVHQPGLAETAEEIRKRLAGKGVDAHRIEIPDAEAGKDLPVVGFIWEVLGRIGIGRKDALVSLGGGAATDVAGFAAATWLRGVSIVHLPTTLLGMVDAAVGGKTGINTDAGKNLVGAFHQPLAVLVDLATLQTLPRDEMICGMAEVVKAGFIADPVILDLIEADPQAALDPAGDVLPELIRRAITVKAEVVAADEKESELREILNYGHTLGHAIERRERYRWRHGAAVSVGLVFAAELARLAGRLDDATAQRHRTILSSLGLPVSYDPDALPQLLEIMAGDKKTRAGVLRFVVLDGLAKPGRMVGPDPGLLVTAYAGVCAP
Protocol: DHQS catalyse the conversion of DAHP to DHQ, and release a molecule of free phosphoric acid. The reaction was performed in a 50-µL volume with DHQS (1 μg/mL), NAD^+ (40 μg/mL), DAHP (10 μg/mL), and Tris-HCl (50 mM, pH 7.5). The solution was added to a 96-well plate and incubated for 40 min at 37 °C. Then, 100 µL of malachite green solution was added and the absorbance of the solution was measured at 620 nm[27].
We screened compounds with anti M. smegmatis activity for DHQS inhibitors. DHQS protein was pre-incubated with 0.5 μL of the test compound (10 μg/mL, dissolved in DMSO) at room temperature for 30 min in 49.5 μL of buffer (without DAHP); for the control group, 0.5 μL of DMSO was added. The reaction was initiated by adding 0.5 μL of DAHP solution followed by incubation (40 min, 37 °C). The absorbance was measured by a microplate reader. […] DHQS (1 μg/mL) was pre-incubated with increasing IMB-T130 concentrations (0.16–40 μg/mL) for 30 min at room temperature, with 1% DMSO used as a control.

[2] = tested on: M. tuberculosis H37Rv (ATCC27294) in J774A.1 mouse monocyte macrophages; experiment: Intracellular anti-TB activity in macrophages; format: cell-based, Mycobacterium tuberculosis; details: for Log10CFU: 3 days, control 5.13 ± 0.03; for reduction in M. tuberculosis colony forming units (CFU): 3 days exposure
[3] = biological target: T1, DHQS (Mycobacterium tuberculosis, UniProt P9WPX9); experiment: SPR interaction between DHQS and IMB-T130 (NTA sensor chip); format: binding; details: 1.875–30 μM IMB-T130
T1 sequence (P9WPX9 whole entry): as above
Protocol: Surface plasmon resonance (SPR) could detect interactions between compounds and proteins. DHQS protein is unstable under acidic conditions, so the combination of IMB-T130 and DHQS was detected using nitrilotriacetic acid (NTA) sensor chip. The chips were coated with […] to capture the His-tagged protein and then exposed to a concentration gradient (1.875–30 μM) of IMB-T130. The response units were determined by SPR[16],[17].
An SPR experiment was performed to examine the interaction between DHQS and IMB-T130. Because the protein was unstable under acidic conditions, CM5 sensor chips were not suitable. […] The sensor chips were first coated with Ni^2+ before capturing the purified DHQS. Next, the chip was exposed to different concentrations of IMB-T130, and the response units for five different concentrations (1.875–30 μM) of IMB-T130 were measured by SPR (BIAcore X100 instrument, GE Healthcare).

[4] = tested on: M. tuberculosis; details: cited from earlier work
[5] = Oral tolerability in ICR mice; format: in vivo
Protocol: We speculated that the compound might have anti-TB activity in vivo. IMB-T130 was well tolerated in ICR mice at up to 500 mg/kg administered orally.

[6] = tested on: M. smegmatis strain overexpressing MtDHQS; experiment: MIC by plate dilution, M. smegmatis overexpressing MtDHQS; format: cell-based, Mycobacterium smegmatis; details: for MIC: Overexpressing MtDHQS
Text: (§1) To overexpress the MtDHQS protein in M. smegmatis, we used the plasmid pMV261-eGFP. The DHQS gene was inserted between the promoter and eGFP gene using BamHI and HindIII restriction enzyme sites so that DHQS was in frame with eGFP. The resulting pMV261:DHQS-eGFP plasmid was transformed into competent M. smegmatis cells. Recombinant protein expression was confirmed by fluorescence microscopy and western blotting with an anti-eGFP antibody. The MICs of IMB-T130 against M. smegmatis with a control vector (pMV261-eGFP plasmid), strains overexpressing a non-related gene (MtL12), and strains overexpressing DHQS-eGFP were determined by the conventional plate dilution method.

[7] = biological target: T1, DHQS; experiment: Circular dichroism spectrum of DHQS and its complex with IMB-T130; format: binding
Text: CD is widely used to examine protein structures in solution. In the far UV spectral region (180–240 nm), the CD spectrum reflects the absorption of peptide bonds, and provides some information about the secondary structural features of a protein[18]. We determined the CD spectrum of the native DHQS and the complex of DHQS and IMB-T130.

[8] = Pharmacokinetic studies in rats; format: in vivo; details: male, Sprague Dawley, rat; for half-life: plasma
Protocol: Pharmacokinetic parameters were determined after administration of single oral and intravenous (iv) doses of IMB-T130 at 20 and 5 mg/kg, respectively, in male Sprague Dawley rats.
Animal care and all experimental procedures were performed in accordance with local, national, and ethical principles and authority regulations, and were approved by the Institutional Animal Care and Use Committee of the Institute of Medicinal Biotechnology Institute. Sprague Dawley rats (226.5–261.2 g) were used in the pharmacokinetic studies. The formulation of IMB-T130 (4 mg/mL) was prepared in 5 mL water with 0.5% sodium carboxyl methyl cellulose for oral administration. For iv administration, 7.5 mg IMB-T130 was dissolved in 0.075 mL N-methyl pyrrolidone, and 0.6 mL of PEG400 and 0.825 mL of 20% hydroxypropyl-β-cyclodextrin (aq) were added. After vortexing for 5 min, the 5 mg/mL IMB-T130 formulation was prepared. Rats were dosed at 1 mL/kg by iv injection and at 5 mL/kg by oral gavage at 0 h. A 0.2 mL blood sample was drawn from the jugular vein at 5, 15, and 30 min, and 1, 2, 4, 6, 8, and 24 h. The blood samples were centrifuged (8000 rpm, 6 min) at 4 °C for plasma separation. The IMB-T130 plasma concentration was determined by liquid chromatography-mass spectrometry using an ACQUITY UPLC BEH C18 column (Waters; 1.7 µm, 2.1 × 50 mm)[30].

[9] = biological target: T1, DHQS; experiment: HPLC-Q-TOF mass spectrometry of intact DHQS after incubation with IMB-T130; details: suggests non-covalent binding
Protocol: In this study, HPLC-Q-TOF mass spectrometry was also performed to determine the molecular mass of the protein.

[10] = tested on: M. smegmatis strain with control vector (PMV261 plasmid); experiment: MIC by plate dilution, M. smegmatis with control vector; format: cell-based, Mycobacterium smegmatis
Text: as §1

[11] = tested on: M. smegmatis strain overexpressing MtL12; experiment: MIC by plate dilution, M. smegmatis overexpressing MtL12; format: cell-based, Mycobacterium smegmatis; details: Mycolicibacterium smegmatis
Text: as §1

[12] = Mycolicibacterium smegmatis, read-out: MIC

For `O=C(Nc1nc(-c2ccccn2)cs1)c1ccc(Cl)s1` [IMB-T130, 5-chloro-N-[4-(pyridin-2-yl)-1,3-thiazol-2-yl] thiophene-2-carboxamide], the IC50 ([1]; IC50, DHQS 1 μg/mL, pre-incubated 30 min at room temperature) was 2700 nM, the remaining activity at 10 µg/mL ([1]; read-out: OD630 as % of the control (1% DMSO)) was < 50% and the Log10CFU ([2]; 1 μg/mL) was 4.85 ± 0.06. The “reduction in M. tuberculosis colony forming units (CFU)” value (“reduction” below) ([2]; 5 μg/mL) was 1.07 log10, the Log10CFU ([2]; 5 μg/mL) was 4.06 ± 0.03 and the “reduction” value ([2]; 10 μg/mL) was 1.36 log10. For the same compound, the Log10CFU ([2]; 10 μg/mL) was 3.77 ± 0.10, the SPR response units [3] was “significant dose-dependent response” and the “minimum inhibitory concentration MIC” value ([4]; strain not printed at the place) was 0.08 µg/mL (≈ 0.249 µM). The “anti-TB activity for susceptible strains” value ([4]; susceptible strains) was “comparable anti-TB activity to rifampicin (RFP) and isoniazid (INH)”, the “well tolerated oral dose” value ([5]; administered orally) was “up to 500 mg/kg” and the adverse effects ([5]; oral, over 72 hours) was “No adverse effects were observed”. For the same compound, the “MIC of DHQS-overexpression strain relative to control strain” value ([6]; DHQS-overexpression vs PMV261 control strain) was “eight-fold higher”, the MIC [6, 12] was 2.5 µg/mL (≈ 7.77 µM) and the MIC [6] was 2.5 µg/mL (≈ 7.77 µM). The “β-turn composition of DHQS in the complex” value ([7]; native protein 11.2%) was 12.4%, the “random coil composition of DHQS in the complex” value ([7]; native protein 13.4%) was 16.8% and the “α-helix composition of DHQS in the complex” value ([7]; native protein 71.6%) was 63.3%. The half-life ([8]; iv 5 mg/kg) was 2.13 h, the half-life ([8]; po 20 mg/kg) was 2.17 h and the bioavailability ([8]; in vivo) was 12.8%. The AUC(0-t) ([8]; in vivo, iv, 5 mg/kg) was 1.07 ng·h/mL, the Vd ([8]; in vivo, iv, 5 mg/kg) was 14.9 L/kg and the clearance ([8]; in vivo, iv, 5 mg/kg) was 83.2 mL/min/kg. The AUC(0-t) ([8]; in vivo, po, 20 mg/kg) was 0.55 ng·h/mL, the Cmax ([8]; in vivo, po, 20 mg/kg) was 116 ng/mL and the Tmax ([8]; in vivo, po, 20 mg/kg) was 1.5 h. The “time exposure was higher than the MIC (80 ng/mL)” value ([8]; in vivo, po, 20 mg/kg) was “about 4 hours”, the “intact mass of DHQS after incubation with compound” value [9] was “did not increase” and the MIC [10] was 0.312 µg/mL (≈ 0.97 µM). The MIC [10, 12] was 0.312 µg/mL (≈ 0.97 µM) and the MIC [11] was 0.312 µg/mL (≈ 0.97 µM).

With `[H]/N=C(/N)N[C@H]1[C@H](O)[C@@H](O)[C@H](O[C@@H]2O[C@@H](C)[C@](O)(C=O)[C@H]2O[C@@H]2O[C@@H](CO)[C@H](O)[C@@H](O)[C@@H]2NC)[C@@H](N/C(N)=N\[H])[C@@H]1O` [Streptomycin, reference compound] the MIC [6, 12] was 0.156 µg/mL (≈ 0.268 µM), the MIC [10, 12] was 0.156 µg/mL (≈ 0.268 µM) and the MIC [11] was 0.156 µg/mL (≈ 0.268 µM).

With `CO[C@H]1/C=C/O[C@@]2(C)Oc3c(C)c(O)c4c(O)c(c(/C=N/N5CCN(C)CC5)c(O)c4c3C2=O)NC(=O)/C(C)=C\C=C\[C@H](C)[C@H](O)[C@@H](C)[C@@H](O)[C@@H](C)[C@H](OC(C)=O)[C@@H]1C` [RFP, rifampicin, reference compound] the Log10CFU ([2]; 0.5 μg/mL) was 4.25 ± 0.07, the Log10CFU ([2]; 2 μg/mL) was 3.74 ± 0.05 and the “reduction” value ([2]; 5 μg/mL) was 1.84 log10. For the same compound, the Log10CFU ([2]; 5 μg/mL) was 3.29 ± 0.12.
